Literature values as cited in patent publication EP4599698A1, “PRODUCTS COMPRISING SENSORY AGENTS” (Nicoventures Trading Limited, priority 2024, dated 2025).
Each block holds one compound with its values, some of them ahead of it.

How the values were obtained:
[1] = when isolated; converts via isomerization into trans-bixin (β-bixin)
[2] = system: TRPA1-containing neurons
[3] = target: TRP melastatin 8/TRPM8 (Homo sapiens, UniProt Q7Z2W7)
[4] = target: TRP ankyrin 1/TRPA1 (Homo sapiens, UniProt O75762)
TRP ankyrin 1/TRPA1, sequence (O75762 whole entry): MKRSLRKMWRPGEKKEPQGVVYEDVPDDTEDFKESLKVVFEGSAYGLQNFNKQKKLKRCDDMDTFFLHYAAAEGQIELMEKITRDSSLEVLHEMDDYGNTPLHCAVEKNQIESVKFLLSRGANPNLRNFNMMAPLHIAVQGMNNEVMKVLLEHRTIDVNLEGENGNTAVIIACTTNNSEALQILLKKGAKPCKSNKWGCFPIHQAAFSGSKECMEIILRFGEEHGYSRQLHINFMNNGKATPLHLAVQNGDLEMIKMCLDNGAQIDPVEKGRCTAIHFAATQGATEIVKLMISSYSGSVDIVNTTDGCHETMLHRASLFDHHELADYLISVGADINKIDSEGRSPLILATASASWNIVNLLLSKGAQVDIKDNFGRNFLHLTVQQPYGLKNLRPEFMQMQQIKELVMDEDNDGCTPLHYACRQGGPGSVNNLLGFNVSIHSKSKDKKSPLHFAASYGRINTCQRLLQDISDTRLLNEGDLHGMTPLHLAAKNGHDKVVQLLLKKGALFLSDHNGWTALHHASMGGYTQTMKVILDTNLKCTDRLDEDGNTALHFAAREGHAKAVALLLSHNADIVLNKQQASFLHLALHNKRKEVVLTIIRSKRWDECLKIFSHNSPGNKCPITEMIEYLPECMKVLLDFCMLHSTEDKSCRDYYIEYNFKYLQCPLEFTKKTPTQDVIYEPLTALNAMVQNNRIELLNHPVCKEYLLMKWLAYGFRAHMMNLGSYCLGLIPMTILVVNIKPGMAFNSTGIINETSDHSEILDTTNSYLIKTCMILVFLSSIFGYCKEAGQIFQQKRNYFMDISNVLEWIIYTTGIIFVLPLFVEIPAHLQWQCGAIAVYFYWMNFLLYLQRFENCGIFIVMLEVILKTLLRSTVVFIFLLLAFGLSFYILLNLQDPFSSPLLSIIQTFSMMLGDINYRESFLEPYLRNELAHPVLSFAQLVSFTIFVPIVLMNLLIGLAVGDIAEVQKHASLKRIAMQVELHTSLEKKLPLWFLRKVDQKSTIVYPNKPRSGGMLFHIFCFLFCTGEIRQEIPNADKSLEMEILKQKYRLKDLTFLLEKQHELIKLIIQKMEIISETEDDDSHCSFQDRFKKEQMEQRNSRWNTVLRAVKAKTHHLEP

[5] = target: transient receptor potential vanilloid 1/TRPV1 (Homo sapiens, UniProt Q8NER1)
transient receptor potential vanilloid 1/TRPV1, sequence (Q8NER1 whole entry): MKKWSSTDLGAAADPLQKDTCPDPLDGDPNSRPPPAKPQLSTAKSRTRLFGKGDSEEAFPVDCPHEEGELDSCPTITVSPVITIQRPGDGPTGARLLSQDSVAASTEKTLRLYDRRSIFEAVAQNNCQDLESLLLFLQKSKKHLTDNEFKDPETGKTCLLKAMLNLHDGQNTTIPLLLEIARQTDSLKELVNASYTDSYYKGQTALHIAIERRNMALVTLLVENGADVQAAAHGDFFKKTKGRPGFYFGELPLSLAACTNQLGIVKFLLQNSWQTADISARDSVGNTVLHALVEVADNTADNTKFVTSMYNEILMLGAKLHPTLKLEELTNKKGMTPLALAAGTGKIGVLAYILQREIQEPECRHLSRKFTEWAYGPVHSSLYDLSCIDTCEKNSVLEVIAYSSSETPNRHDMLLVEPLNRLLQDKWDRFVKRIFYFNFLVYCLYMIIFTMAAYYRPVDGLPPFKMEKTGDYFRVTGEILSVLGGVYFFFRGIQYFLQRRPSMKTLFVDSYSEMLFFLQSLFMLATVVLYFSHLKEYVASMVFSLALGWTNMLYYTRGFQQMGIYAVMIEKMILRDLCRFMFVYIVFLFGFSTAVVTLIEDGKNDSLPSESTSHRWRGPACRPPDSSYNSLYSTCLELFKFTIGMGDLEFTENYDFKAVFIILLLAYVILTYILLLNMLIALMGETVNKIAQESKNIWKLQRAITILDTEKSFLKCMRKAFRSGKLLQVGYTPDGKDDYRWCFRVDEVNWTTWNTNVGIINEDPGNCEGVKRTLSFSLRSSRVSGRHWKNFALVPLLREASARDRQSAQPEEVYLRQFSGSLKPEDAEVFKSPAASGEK

TRP melastatin 8/TRPM8, sequence (Q7Z2W7 whole entry): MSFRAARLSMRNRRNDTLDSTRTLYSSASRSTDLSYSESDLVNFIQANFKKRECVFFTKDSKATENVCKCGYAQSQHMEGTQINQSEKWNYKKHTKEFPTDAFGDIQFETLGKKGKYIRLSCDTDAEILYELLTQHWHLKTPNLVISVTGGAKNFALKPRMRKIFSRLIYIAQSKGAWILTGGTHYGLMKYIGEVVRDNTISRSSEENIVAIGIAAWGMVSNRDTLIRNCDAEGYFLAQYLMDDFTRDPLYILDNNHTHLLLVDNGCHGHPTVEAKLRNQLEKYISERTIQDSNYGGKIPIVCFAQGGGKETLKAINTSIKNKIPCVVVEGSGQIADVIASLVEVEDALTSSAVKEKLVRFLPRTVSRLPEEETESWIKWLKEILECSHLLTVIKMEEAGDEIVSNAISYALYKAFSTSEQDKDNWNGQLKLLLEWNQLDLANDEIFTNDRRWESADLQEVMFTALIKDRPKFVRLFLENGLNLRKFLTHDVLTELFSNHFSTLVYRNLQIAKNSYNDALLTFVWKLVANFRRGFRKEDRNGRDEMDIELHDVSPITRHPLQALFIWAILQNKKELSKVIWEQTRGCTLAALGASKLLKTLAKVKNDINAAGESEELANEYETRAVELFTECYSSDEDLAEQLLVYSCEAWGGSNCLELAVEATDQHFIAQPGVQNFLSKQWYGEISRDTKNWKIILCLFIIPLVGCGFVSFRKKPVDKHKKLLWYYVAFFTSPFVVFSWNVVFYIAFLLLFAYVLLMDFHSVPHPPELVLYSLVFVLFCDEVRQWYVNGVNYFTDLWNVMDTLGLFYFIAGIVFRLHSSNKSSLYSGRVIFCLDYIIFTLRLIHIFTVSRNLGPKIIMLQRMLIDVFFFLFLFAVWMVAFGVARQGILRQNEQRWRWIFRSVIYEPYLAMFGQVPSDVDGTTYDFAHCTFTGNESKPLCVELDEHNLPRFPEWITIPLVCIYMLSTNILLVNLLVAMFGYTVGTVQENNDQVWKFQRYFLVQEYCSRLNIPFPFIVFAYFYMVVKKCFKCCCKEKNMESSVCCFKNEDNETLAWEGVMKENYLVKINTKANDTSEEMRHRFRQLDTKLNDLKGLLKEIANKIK

- solubility in water: insoluble in water
- chemical stability [1]: chemically unstable when isolated
SMILES: COC(=O)/C=C/C(C)=C\C=C\C(C)=C\C=C\C=C(C)\C=C\C=C(C)\C=C\C(=O)O [bixin, (2E,4E,6E,8E,10E,12E,14E,16Z,18E)-20-methoxy-4,8,13,17-tetramethyl-20-oxoicosa-2,4,6,8,10,12,14,16,18-nonaenoic acid]

- agonist activity at TRPM8 [3]: weak agonist
SMILES: C=CC(C)(O)CCC=C(C)C (stereo not shown) [Linalool]
- stimulation of TRPA1-containing neurons [2]: shown to stimulate

- agonist activity at TRPA1 [4]: agonist
- agonist activity at TRPV1 [5]: agonist
SMILES: C/C=C/C=C/C=C\CC/C=C/C(=O)NCC(C)(C)O [Hydroxyl-α-sanshool]

- solubility in water: water soluble
SMILES: CC(/C=C/C=C(C)/C=C/C(=O)O)=C\C=C\C=C(C)\C=C\C=C(C)\C=C\C(=O)O (stereo in doubt) [norbixin, (2E,4E,6E,8E,10E,12E,14E,16E,18E)-4,8,13,17-tetramethylicosa-2,4,6,8,10,12,14,16,18-nonaenedioic acid]
